Results as given in the supplement of paper PMC10307832.

Tests used:
Assay in all cases: relative viability (nuclei count vs DMSO), 5 days (fraction); higher = more cells survive
[1] = compound: C(C(=O)C(=O)O)Br [Bromopyruvate] + CS(=O)(=O)N1CCN(Cc2cc3nc(-c4cccc5[nH]ncc45)nc(N4CCOCC4)c3s2)CC1 [Pictilisib] (partner 1 µM)
In short: (§1)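 Cells from lung cancer lines were seeded into 1536-well plates and, one day later, dosed by pin tool. Treatments were either a single drug or a fixed dose of an anchor drug with five library-drug doses (not always all listed) in √10 steps. After 5 days, nuclei were stained in a one-step fixation (final 0.05% Triton X-100, 1% formaldehyde, 1 ug/ml Hoechst) and counted on 4× images, and relative viability is the treated-to-vehicle nuclei ratio, as the median of duplicate plates.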

[2] = compound: CC(O)(CS(=O)(=O)c1ccc(F)cc1)C(=O)Nc1ccc(C#N)c(C(F)(F)F)c1 [Bicalutamide] + CC(=O)Nc1cccc(-n2c(=O)n(C3CC3)c(=O)c3c(Nc4ccc(I)cc4F)n(C)c(=O)c(C)c32)c1 [Trametinib] (partner 0.02 µM)
In short: as §1

[3] = compound: C(C(=O)C(=O)O)Br [Bromopyruvate] + Nc1ncn([C@H]2C[C@H](O)[C@@H](CO)O2)c(=O)n1 [Decitabine] (partner 2 µM)
In short: as §1

Bicalutamide + AZD7762 = compound: CC(O)(CS(=O)(=O)c1ccc(F)cc1)C(=O)Nc1ccc(C#N)c(C(F)(F)F)c1 [Bicalutamide] + NC(=O)Nc1cc(-c2cccc(F)c2)sc1C(=O)N[C@H]1CCCNC1 [AZD7762] (partner 0.2 µM)
In short: as §1

Cell Line	relative viability ([1]; first compound 1 µM)	relative viability ([1]; first compound 3.162 µM)	relative viability ([1]; first compound 10 µM)	relative viability ([1]; first compound 31.62 µM)	relative viability ([1]; first compound 100 µM)	relative viability ([2]; first compound 0.08 µM)	relative viability ([2]; first compound 0.253 µM)	relative viability ([2]; first compound 0.8 µM)	relative viability ([2]; first compound 2.53 µM)	relative viability ([3]; first compound 1 µM)	relative viability ([3]; first compound 3.162 µM)	relative viability ([3]; first compound 10 µM)	relative viability ([3]; first compound 31.62 µM)	relative viability ([3]; first compound 100 µM)	relative viability (Bicalutamide + AZD7762; first compound 0.08 µM)	relative viability (Bicalutamide + AZD7762; first compound 0.253 µM)	relative viability (Bicalutamide + AZD7762; first compound 0.8 µM)	relative viability (Bicalutamide + AZD7762; first compound 2.53 µM)
HCC-78	0.201	0.202	0.224	0.218	0.249	0.94	0.653	0.86	0.779	0.644	0.708	0.723	0.63	0.655	0.758	0.598	0.696	0.611
HCC-366	0.157	0.208	0.205	0.143	0.164	0.388	0.231	0.454	0.284	0.358	0.302	0.43	0.348	0.351	0.392	0.229	0.332	0.281
HCC-827	1.08	0.909	1.14	1.17	0.849	0.58	0.459	0.552	0.547	0.356	0.295	0.305	0.331	0.266	0.234	0.124	0.217	0.227
HOP-62	0.71	0.889		0.836	0.988	0.396	0.403	0.427	0.354	0.217	0.229	0.186	0.211	0.138	0.567	0.494	0.848	0.432
IA-LM	0.336	0.357	0.328	0.28	0.434													
NCI-H520	0.264	0.34	0.337	0.293	0.317	0.725	0.363	0.939	0.432	0.576	0.486	0.473	0.531	0.414				
NCI-H522						0.661	0.723	0.813	0.8	0.604	0.705	0.619	0.699	0.603	0.762	0.849	0.916	0.808
NCI-H661	0.445	0.349	0.458	0.337	0.354	0.631	0.534	0.621	0.558	0.505	0.571	0.654	0.546	0.523				
NCI-H1299	0.779	0.811	0.809	0.664	0.799													
NCI-H1563	0.657	0.657	0.535	0.626	0.697													
NCI-H1648								0.395	0.546	0.465	0.572	0.454	0.511	0.491			0.736	0.686
NCI-H1650	0.545	0.532	0.567	0.651	0.512	0.586	0.529	0.713	0.473	0.448	0.393	0.462	0.454	0.266				
NCI-H1703	0.238	0.226	0.256	0.271	0.269										0.123	0.117	0.162	0.174
NCI-H2009	0.764	0.831	0.742	0.709	0.613	0.296	0.225	0.296	0.248	0.352	0.42	0.336	0.349	0.261				
NCI-H2023	0.236	0.237	0.221	0.209	0.25	0.547	0.52	0.556	0.382	0.221	0.205	0.29	0.229	0.194				
NCI-H2228	0.349	0.37	0.402	0.416	0.635	0.39	0.54	0.616	0.34									
NCI-H2342						0.771	0.807	0.768	0.805	0.746	0.682	0.676	0.695	0.629	0.553	0.478	0.528	0.568
SK-LU-1	0.545	0.65	0.616	0.551	0.53	0.52	0.565	0.576	0.443	0.704	0.606	0.56	0.597	0.623				
SK-MES-1	0.356	0.32	0.427	0.373	0.321	0.534	0.508	0.456	0.499	0.362	0.494	0.353	0.427	0.337				
SW 900						0.778	0.678	0.756	0.809	0.451	0.485	0.462	0.419	0.449	0.707	0.645	0.745	0.586
SW 1573	0.463	0.438	0.46	0.521	0.303	0.668	0.473	0.748	0.608	0.498	0.574	0.534	0.304	0.0598				
